Format in all cases: functional
Test [1] relates to Staphylococcus aureus. Description: Antibacterial activity against Staphylococcus aureus ATCC 25923.
The subject of test [2] is Staphylococcus epidermidis. Description: Antibacterial activity against Staphylococcus epidermidis.
The test system of the next test is Escherichia coli. The experiment in a line: Antibacterial activity against Escherichia coli ATCC 25922.
In test [3] the test system is Pseudomonas aeruginosa. Description: Antibacterial activity against Pseudomonas aeruginosa ATCC 27853.
A further test deals with Klebsiella pneumoniae. The experiment in a line: Antibacterial activity against Klebsiella pneumoniae.
In test [4] the test system is Pseudomonas aeruginosa. The experiment in a line: Ratio MIC for ceftazidime to compound MIC for Pseudomonas aeruginosa ATCC 27853.
Test [5] relates to Staphylococcus aureus. Description: Ratio MIC for ceftazidime to compound MIC for Staphylococcus aureus ATCC 25923.

Converted amounts (≈) assume the structure as drawn.

In the case of `CC(C)CCO/N=C(\C(=O)N[C@@H]1C(=O)N2C(C(=O)O)=C(CSc3nncs3)OC[C@H]12)c1nsc(N)n1`, the MIC (with Staphylococcus aureus [1]; in test [2]; in the test with Escherichia coli; against Pseudomonas aeruginosa [3]; in the test with Klebsiella pneumoniae) was 128 µg/mL (≈ 231 µM) each time.
On to `Nc1nc(/C(=N/OC2CCCCC2)C(=O)N[C@@H]2C(=O)N3C(C(=O)O)=C(CSc4nnnn4CCO)OC[C@H]23)ns1`, for which the MIC in the test on Staphylococcus aureus [1] is 2 µg/mL (≈ 3.36 µM); in test [2], 64 µg/mL (≈ 108 µM); against Escherichia coli it was 32 µg/mL (≈ 53.8 µM); with Pseudomonas aeruginosa [3] it was 64 µg/mL (≈ 108 µM); against Klebsiella pneumoniae it was 128 µg/mL (≈ 215 µM).
With `CC(C)O/N=C(\C(=O)N[C@@H]1C(=O)N2C(C(=O)O)=C(CSc3nnnn3CCO)OC[C@H]12)c1nsc(N)n1`, the MIC in the test with Staphylococcus aureus [1] stood at 0.5 µg/mL (≈ 0.902 µM); in test [2], 0.125 µg/mL (≈ 0.225 µM); against Escherichia coli, 0.5 µg/mL (≈ 0.902 µM); with Pseudomonas aeruginosa [3], 8 µg/mL (≈ 14.4 µM); against Klebsiella pneumoniae, 32 µg/mL (≈ 57.7 µM).
On to `CC(C)O/N=C(\C(=O)N[C@@H]1C(=O)N2C(C(=O)O)=C(CSc3nncs3)OC[C@H]12)c1nsc(N)n1`, for which the MIC with Staphylococcus aureus [1] is 32 µg/mL (≈ 60.8 µM); in test [2], 1 µg/mL (≈ 1.9 µM); in the test with Escherichia coli, 128 µg/mL (≈ 243 µM); with Pseudomonas aeruginosa [3], 4 µg/mL (≈ 7.6 µM); against Klebsiella pneumoniae, 1 µg/mL (≈ 1.9 µM).
As for `CC(C)CCO/N=C(\C(=O)N[C@@H]1C(=O)N2C(C(=O)O)=C(CSc3nnnn3CCO)OC[C@H]12)c1nsc(N)n1`, the minimum inhibitory concentration (MIC) in the test with Staphylococcus aureus [1] was found to be 4 µg/mL (≈ 6.87 µM); in test [2], 0.125 µg/mL (≈ 0.215 µM); in the test with Escherichia coli, 16 µg/mL (≈ 27.5 µM); in the test on Pseudomonas aeruginosa [3], 8 µg/mL (≈ 13.7 µM); against Klebsiella pneumoniae, 64 µg/mL (≈ 110 µM). In the test with Pseudomonas aeruginosa [4], the Ratio is given as 2.
Take `Nc1nc(/C(=N/OC2CCCC2)C(=O)N[C@@H]2C(=O)N3C(C(=O)O)=C(CSc4nnnn4CCO)OC[C@H]23)ns1`: the MIC against Staphylococcus aureus [1] is 1 µg/mL (≈ 1.72 µM); in test [2] it was 0.125 µg/mL (≈ 0.215 µM); against Escherichia coli, 4 µg/mL (≈ 6.89 µM); in the test on Pseudomonas aeruginosa [3], 2 µg/mL (≈ 3.44 µM); against Klebsiella pneumoniae, 8 µg/mL (≈ 13.8 µM). Further, the Ratio with Pseudomonas aeruginosa [4] stood at 2.
In the case of `CO/N=C(\C(=O)N[C@@H]1C(=O)N2C(C(=O)O)=C(CSc3nnnn3CCO)OC[C@H]12)c1nsc(N)n1`, the MIC against Staphylococcus aureus [1] was found to be 0.5 µg/mL (≈ 0.95 µM); in test [2], 16 µg/mL (≈ 30.4 µM); in the test with Escherichia coli it was 2 µg/mL (≈ 3.8 µM); in the test with Pseudomonas aeruginosa [3], 16 µg/mL (≈ 30.4 µM); against Klebsiella pneumoniae it was 32 µg/mL (≈ 60.8 µM). Further, the Ratio with Staphylococcus aureus [5] is on record as 4.
As to `CO/N=C(\C(=O)N[C@@H]1C(=O)N2C(C(=O)O)=C(CSc3nncs3)OC[C@H]12)c1nsc(N)n1`, the MIC against Staphylococcus aureus [1] came to 64 µg/mL (≈ 128 µM); in test [2] it was 16 µg/mL (≈ 32.1 µM); with Escherichia coli it was 64 µg/mL (≈ 128 µM); in the test with Pseudomonas aeruginosa [3] it was 32 µg/mL (≈ 64.2 µM); with Klebsiella pneumoniae it was 8 µg/mL (≈ 16 µM).
On to `CCCCCO/N=C(\C(=O)N[C@@H]1C(=O)N2C(C(=O)O)=C(CSc3nnnn3CCO)OC[C@H]12)c1nsc(N)n1`, for which the MIC was 16 µg/mL (≈ 27.5 µM) in the test with Staphylococcus aureus [1]; 0.125 µg/mL (≈ 0.215 µM) in test [2]; 8 µg/mL (≈ 13.7 µM) in the test with Escherichia coli; 4 µg/mL (≈ 6.87 µM) against Pseudomonas aeruginosa [3]; 32 µg/mL (≈ 54.9 µM) in the test with Klebsiella pneumoniae. Moreover, the Ratio in the test with Pseudomonas aeruginosa [4] is listed as 2.
As to `CCCCCO/N=C(\C(=O)N[C@@H]1C(=O)N2C(C(=O)O)=C(CSc3nncs3)OC[C@H]12)c1nsc(N)n1`, the MIC worked out at 64 µg/mL (≈ 115 µM) against Staphylococcus aureus [1]; 64 µg/mL (≈ 115 µM) in test [2]; 128 µg/mL (≈ 231 µM) in the test on Escherichia coli; 16 µg/mL (≈ 28.8 µM) with Pseudomonas aeruginosa [3]; 32 µg/mL (≈ 57.7 µM) in the test on Klebsiella pneumoniae.
Consider `CCO/N=C(\C(=O)N[C@@H]1C(=O)N2C(C(=O)O)=C(CSc3nncs3)OC[C@H]12)c1nsc(N)n1`, for which the MIC in the test on Staphylococcus aureus [1] was 64 µg/mL (≈ 125 µM); in test [2], 128 µg/mL (≈ 250 µM); in the test with Escherichia coli it was 128 µg/mL (≈ 250 µM); against Pseudomonas aeruginosa [3], 128 µg/mL (≈ 250 µM); against Klebsiella pneumoniae it was 128 µg/mL (≈ 250 µM).
Take `Nc1nc(/C(=N/OC2CCCC2)C(=O)N[C@@H]2C(=O)N3C(C(=O)O)=C(CSc4nncs4)OC[C@H]23)ns1`: the MIC in the test on Staphylococcus aureus [1] turned out to be 128 µg/mL (≈ 232 µM); in test [2] it was 8 µg/mL (≈ 14.5 µM); with Escherichia coli it was 128 µg/mL (≈ 232 µM); in the test on Pseudomonas aeruginosa [3], 16 µg/mL (≈ 29 µM); with Klebsiella pneumoniae it was 4 µg/mL (≈ 7.24 µM).
With `CC(C)(O/N=C(\C(=O)N[C@@H]1C(=O)N2C(C(=O)[O-])=C(C[n+]3ccccc3)CS[C@H]12)c1csc(N)n1)C(=O)O` [CEFTAZIDIME], the MIC against Staphylococcus aureus [1] stood at 2 µg/mL (≈ 3.66 µM); in test [2] it was 16 µg/mL (≈ 29.3 µM); with Escherichia coli it was 4 µg/mL (≈ 7.32 µM); in the test with Pseudomonas aeruginosa [3], 16 µg/mL (≈ 29.3 µM); in the test with Klebsiella pneumoniae it was 32 µg/mL (≈ 58.5 µM).
As for `Nc1nc(/C(=N/OC2CCCCC2)C(=O)N[C@@H]2C(=O)N3C(C(=O)O)=C(CSc4nncs4)OC[C@H]23)ns1`, the MIC with Staphylococcus aureus [1] turned out to be 128 µg/mL (≈ 226 µM); in test [2] it was 16 µg/mL (≈ 28.2 µM); in the test on Escherichia coli, 128 µg/mL (≈ 226 µM); in the test on Pseudomonas aeruginosa [3], 16 µg/mL (≈ 28.2 µM); against Klebsiella pneumoniae, 16 µg/mL (≈ 28.2 µM).
On to `CCO/N=C(\C(=O)N[C@@H]1C(=O)N2C(C(=O)O)=C(CSc3nnnn3CCO)OC[C@H]12)c1nsc(N)n1`, for which the MIC in the test with Staphylococcus aureus [1] turned out to be 0.5 µg/mL (≈ 0.925 µM); in test [2], 0.125 µg/mL (≈ 0.231 µM); in the test with Escherichia coli, 2 µg/mL (≈ 3.7 µM); in the test on Pseudomonas aeruginosa [3], 64 µg/mL (≈ 118 µM); against Klebsiella pneumoniae it was 64 µg/mL (≈ 118 µM).

The MIC is the lowest concentration that inhibits growth of the organism. Read a low MIC as a more susceptible organism.

For the origin of these results see ChEMBL document CHEMBL2062516, “Design, synthesis and antibacterial activities of a series of new 2-oxaisocephems” (2012).
